Assay results taken from patent US20200178534A1, “INDUCTION OF FLORAL DEVELOPMENT IN PLANTS” (priority 2016, published 2020).

Columns and labels:
[1] = system: Arabidopsis thaliana, ecotype Columbia (Col-0) and attps7 knockout mutants; experiment: Height of the flowering inflorescence at 26 DAS after spraying T6P signalling precursor; assay type: in vivo; conditions: versus water control
Procedure: Right hand bars in each panel represent plants treated with 1 mM oNPE. Left hand bars in each panel represent plants treated with water (controls). […] This reflects the advancement of flowering by oNPE.
(§1) Seeds of Arabidopsis thaliana, ecotype Columbia (Col-0) and attps7 knockout mutants were surface-sterilized with 70% of ethanol for 2 min and 75% household bleach for 7 min, and grown on nutrient agar media (0.5×Murashige and Skoog plus Gamborg's vitamins (Sigma). 0.5% Sucrose and 0.7% Agar) in Petri plates. Seeds on the Petri plates were placed in a growth chamber (22° C., 150 μmol m^−2 s^−1, 16-h day). Seven days after plating, seedlings were transferred to pots of soil containing Rothamsted standard compost mix and full nutrition (one seedling per pot). Forty plants per A. thaliana type (n=40 Col-0, n=40 TPS7_3, n=40 TPS7_4.15) were grown at 22CC, 250 μmol m^−2 s^−1 irradiance, 16-h day. Eight days after sowing (DAS) plants were sprayed with 0.5 ml 1 mM oNPE-T6P (ortho-nitrphenyl)ethyl trehalose 6-phosphate dissolved in distilled water with the addition of 0.1% of Tween20 during the middle of the mid-photoperiod. Twenty-four hours after spraying (9 DAS), plants sprayed with 1 mM oNPE-T6P were exposed to 600 μmol m^−2 s^−1 irradiance for 1 h to release T6P from oNPE-T6P. Spraying was repeated at 12 and 16 DAS.
Height of the flowering inflorescence was then measured at 26 DAS. […]

[2] = system: Arabidopsis thaliana, ecotype Columbia (Col-0) and attps7 knockout mutants; experiment: Appearance of flower buds / flowering time after spraying T6P signalling precursor; assay type: in vivo; design: key to flower bud had appeared (individual plant N): X: shown as crosses in highlighted boxes; conditions: for flower bud had appeared (individual plant N): 1 mM spray, day 5 after spraying
Procedure: In both cases it is possible to advance the development of the flowering inflorescence by several centimetres and advance flowering time by up to a week.
as §1
First, the appearance of the flower bud was quicker in plants sprayed with oNPE-T6P than with water.

CC(OP(=O)(OC[C@H]1O[C@H](O[C@H]2O[C@H](CO)[C@@H](O)[C@H](O)[C@H]2O)[C@H](O)[C@@H](O)[C@@H]1O)OC(C)c1ccccc1[N+](=O)[O-])c1ccccc1[N+](=O)[O-] (stereo partly drawn) [oNPE-T6P, 6-O-bis[1-(2-nitrophenyl)-ethoxyphosphoryl]-D-trehalose]
height of the flowering inflorescence ([1]; Col-0, 1 mM): taller inflorescences | height of the flowering inflorescence ([1]; tps7, 1 mM): taller inflorescences | flower bud had appeared (individual plant N) ([2]; Col-0): X | flower bud had appeared (individual plant N) ([2]; TPS7_3 mutant): X | flower bud had appeared (individual plant N) ([2]; TPS7_4.15 mutant): X | appearance of the flower bud compared with water ([2]; plants sprayed with 1 mM, versus water): quicker
